Experimental findings from patent US20040087498A1, “Modified factor VII” (Novo Nordisk Health Care AG, priority 1991, published 2004) are described below.

Assay [1] deals with tissue factor preparation (saline extract of baboon brain). Briefly: Clotting assay in normal baboon plasma with baboon brain tissue factor. It is filed as biochemical. On the procedure: The samples were mixed and briefly incubated at 37° C. The samples were added to an Electra 800 Automatic Coagulation Timer (Medical Laboratories Automation, Pleasantville, N.Y.). […] A tissue factor preparation was made as a saline extract of baboon brain from freshly frozen brain tissue and characterized for its ability to initiate coagulation in baboon plasma. A concentration of tissue factor that gave a clotting time of about 40 seconds was selected.

Assay [2] concerns cell-surface tissue factor on baboon smooth muscle cells. Briefly: Cell-surface Factor Xa generation on baboon SMCs. Type of assay: cell-based. The source says: A cell-surface chromogenic assay was developed, essentially as described in Example VIII above, to measure the efficacy of DEGR-FVIIa to block FVIIa binding to cell-surface tissue factor and the subsequent conversion of Factor X to Factor Xa on monolayers of baboon smooth muscle cells (SMCs). This method is a modification of those described by Sakai et al., J. Bio. Chem. 264:9980-9988 (1989) and Wildgoose et al., Proc. Natl. Acad. Sci. USA. 87:7290-7294 (1990). Baboon SMCs were obtained from the University of Washington, Seattle, Wash., and were cultured from aortic explants. The baboon SMCs were plated into 96-well culture dishes at a concentration of 8,000 cells/well in 200 μl/well DMEM culture media supplemented with 10% fetal calf serum, and maintained in this media for 4 days at 37° C. in 5% CO2. At the time of assay 110 μl of culture media was removed, and increasing concentrations of FVIIa or FVIIa in combination with DEGR-FVIIa were added to wells. A standard curve for FVIIa concentration was generated, ranging from 5 nM to 0.04 nM. […] Twenty-five microliters per well of 0.8 mM S-2222, a factor Xa-specific chromogenic substrate, in Tris buffer was added and the absorbance at 405 nm read after 60 mins in a Thermomax microplate reader (Molecular Devices Corp., Menlo Park, Calif.).

For assay [3], the system named is tissue factor (TF) and activated Factor VII (FVIIa) mediation of vascular lesion formation. In words: Vascular lesion formation after carotid endarterectomy in baboons. It is filed as in vivo. The settings on record: baboon. As to the method: Measurements were performed for vascular lesion formation on day 30. The results in 5 treated animals were compared with the findings in 5 concurrent vehicle buffer-infused controls.
(§1) Under halothane anesthesia and sterile operating conditions, animals labeled with autologous ^111In-platelets received intravenous infusions of DEGR-FVIIa using the tether system for continuous intravenous administration (initial bolus injection of 1 mg/kg followed by continuous intravenous infusion of 50 μg/kg/hr. The animals received surgical carotid endarterectomy, bilateral brachial artery or bilateral femoral artery Fogarty balloon catheter angioplasties.
The DEGR-FVIIa was administered for 7 or 30 days by continuous infusions via venous catheter using the tether system. Thirty days after surgery the animals were anesthetized with halothane and underwent in situ pressure-perfusion fixation with 4% paraformaldehyde containing 0.1% glutaraldeyde for 30 min. […]
Carotid endarterectomy was performed through a midline neck incision using the technique of Hanson et al., Hypertension 18:I170-I-176 (1991) and Krupski et al., Circulation 84:1749-1757 (1991), incorporated herein by reference. […] The endarterectomy was then performed beginning 1 cm from the divided end of the everted vessel segment and continued for a measured distance of 1 cm. […]

Assay [4] deals with vascular lesion formation. Briefly: Balloon brachial artery model in baboons. The settings on record: baboon brachial artery balloon model, preliminary studies. Type of assay: in vivo. On the procedure:
as §1
The DEGR-FVIIa was administered for 7 or 30 days by continuous infusions via venous catheter using the tether system. […]
For morphometric analysis of VLF, sections embedded in paraffin and stained for connective tissue components (collagen, elastin) and with hematoxylin-eosin, were evaluated using a Zeiss Photoscope coupled with image analysis system (Thomas Optical Measurement Systems, Columbus, Ga.) consisting of high resolution (580 lines) CCD microscope camera coupled to a high resolution (700 lines) monitor, an IBM 386 chip, 80 MB computer with high resolution graphics digitablet for image acquisition and storage. Quantitative image analysis was performed using a morphometric software driver (Optimas, Bioscan, Inc., Edmonds, Wash.). Arterial cross-sections were analyzed with respect to the total area of neointimal proliferative lesion and corresponding area of arterial media. […]

Where only a bound is given, the exact number is not on record here.

As for “DEGR-Factor VIIa: Recombinant human Factor VIIa with its active site derivatized by Dansyl-L-Glu-Gly-Arg-chloromethyl Ketone (DEGRck)”, the Clotting time stood at 46.2 s in assay [1] (0.5 μg/ml plasma); 50.8 s in assay [1] (1.0 μg/ml plasma); 64.5 s in assay [1] (2.5 μg/ml plasma); 108.1 s in assay [1] (5.0 μg/ml plasma); 158.4 s in assay [1] (10.0 μg/ml plasma). Further, the “inhibition in the generation of Factor Xa chromogenic activity” value in assay [2] (10-fold lower level of DEGR-FVIIa than FVIIa (5 nM)) was 40%. Further, the “inhibition of the chromogenic activity” value in assay [2] (equal molar ratio of DEGR-FVIIa to FVIIa (5 nM)) is given as more than 90%. For the same substance, the intimal area result is “A similar result” in assay [3] (treated for 30 days, examined at 30 days) and “significantly decreased” in assay [3] (treated for seven days, studied at 30 days, versus control). Besides, the benefit of therapy entry in assay [4] is given as “no measurable benefit”.
